# Assay results: patent US20240391887A1, “New VASHs inhibitors, conjugates thereof and their uses as drugs or as research tools” (Centre National de Recherche Scientifique (CNRS), priority 2021, published 2024)
# “Also recorded” adds a separate entry of the source. Read-outs that look alike come from different tables or passages of the source.
# Columns and labels:
# carboxypeptidase A (CPA) = target: T1, carboxypeptidase A (CPA) (Bos taurus, UniProt P00730); assay: Carboxypeptidase A-dependent tubulin detyrosination in vitro; assay type: biochemical; details: concentration not given
# T1 sequence (P00730 111-419): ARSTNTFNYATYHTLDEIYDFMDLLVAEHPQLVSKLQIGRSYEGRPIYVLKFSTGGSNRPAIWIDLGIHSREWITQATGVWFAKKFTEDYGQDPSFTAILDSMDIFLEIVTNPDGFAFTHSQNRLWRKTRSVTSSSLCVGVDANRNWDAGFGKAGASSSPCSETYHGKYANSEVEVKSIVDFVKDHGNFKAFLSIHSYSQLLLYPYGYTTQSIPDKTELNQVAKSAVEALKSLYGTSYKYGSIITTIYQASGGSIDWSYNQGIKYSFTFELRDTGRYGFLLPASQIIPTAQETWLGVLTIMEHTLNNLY
# VASH2 = VASH2 (Homo sapiens, UniProt Q86V25); assay: In vitro detyrosination assay, VASH2-mediated (immunoblot); assay type: biochemical; details: concentration not given
# Sequence of VASH2 (Q86V25 whole entry, species assumed): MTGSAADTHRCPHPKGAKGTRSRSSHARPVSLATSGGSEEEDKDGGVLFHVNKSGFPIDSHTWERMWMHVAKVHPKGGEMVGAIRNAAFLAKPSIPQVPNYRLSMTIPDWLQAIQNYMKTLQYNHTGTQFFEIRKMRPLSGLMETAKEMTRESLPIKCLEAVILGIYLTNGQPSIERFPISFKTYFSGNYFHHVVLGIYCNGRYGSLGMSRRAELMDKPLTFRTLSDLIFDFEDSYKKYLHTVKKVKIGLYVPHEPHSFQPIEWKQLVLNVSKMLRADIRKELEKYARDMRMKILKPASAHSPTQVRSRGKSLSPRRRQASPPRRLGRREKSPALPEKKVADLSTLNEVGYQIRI
# VASH1 [1] = target: T2, VASH1 (Homo sapiens, UniProt Q7L8A9); assay: In vitro detyrosination assay using recombinant VASH1 (immunoblot); details: concentration not given
# T2 sequence (Q7L8A9 whole entry): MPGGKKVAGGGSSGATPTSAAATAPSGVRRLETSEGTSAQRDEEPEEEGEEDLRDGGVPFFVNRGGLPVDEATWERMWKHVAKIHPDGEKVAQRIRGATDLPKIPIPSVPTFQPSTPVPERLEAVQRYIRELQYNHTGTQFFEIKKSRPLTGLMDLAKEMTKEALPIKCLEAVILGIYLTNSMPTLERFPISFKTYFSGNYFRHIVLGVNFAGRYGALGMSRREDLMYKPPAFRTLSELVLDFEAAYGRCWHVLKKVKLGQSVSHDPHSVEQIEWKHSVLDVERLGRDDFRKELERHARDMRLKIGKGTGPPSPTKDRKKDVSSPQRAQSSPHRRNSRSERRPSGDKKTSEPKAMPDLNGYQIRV
# T2 sequence (Q8N300 whole entry partner): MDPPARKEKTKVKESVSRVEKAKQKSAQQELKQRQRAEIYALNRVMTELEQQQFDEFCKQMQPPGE
# VASHs = details: background statement; read-out: IC50 in cellulo; cited from earlier work
# [2] = system: VASH-mediated tubulin detyrosination in human CHL-1 cells; assay: In cellulo taxol-induced tubulin detyrosination assay in CHL-1 cells
# VASH1 [3] = target: T2, VASH1; assay: Standardized in vitro detyrosination ELISA based assay; assay type: biochemical; set-up: poly-histidine tag; made in house; host or cells: bacteria (IPTG induction); details: for in vitro VASH inhibition activity / in vitro activity compared with reference compounds: in vitro detyrosination assay; for Fold change/ LV-80: ratio IC50(compound)/IC50(LV80)
# Procedure: Standardized primary ELISA-based in vitro detyrosination assay in a 96-wells format has been developed according to the method disclosed in WO2020/012002. […] Primary (rabbit anti-detyrosinated tubulin) is incubated for 1 hour and after washes, secondary (anti-rabbit) antibody is added to each well. The plate is incubated 1 h at room temperature. Development consists of addition of TMB (3,3′,5,5′-Tetramethylbenzidine) to each well, incubation 30 minute at room temperature. The colour development is stopped by addition of 0.5 M sulfuric acid. OD is measured at 450 nm.
# The in vitro inhibition activity of IBMT11 is tested by adding the compound to the reaction medium as described above (see part 2.2) and then detyrosination was analysed by immunoblotting with the indicated antibodies.
# [4] = Solubility in water or PBS solution; assay type: physicochemical; details: compared with the corresponding base LV-80
# CHL-1 cells [5] = assay: LC/MS bioanalysis of penetration and conversion in human cells; assay type: in vitro ADME; details: 25 uM, 1 hour
# Procedure: CHL-1 cells have been treated with 25 uM of LV-104 for 1 hour. Culture supernatant have been collected immediately (initial) and 1 hour (supernatant) after compound addition. Cells have been washed, lysed and processed for LC/MS reading (Cells) to detect LV-104 and its bio converted form IBMT11.
# Peptide stability in serum Human serum reaction sample contained 250 μl of heat inactivated Human Serum (Sigma Aldrich) and 750 μL of RPMI Medium 1640 (Sigma Aldrich). The reactions were initiated by addition of 50 μl compound (in mM stock solution in DMSO). Assays were performed in a shaking water bath at 37° C. 100 μl samples were collected at known time intervals and added to 200 μl of acetonitrile 1% % TFA to precipitate serum proteins. Cloudy sample was cooled to 4° C. for 15 min and then submitted to centrifugation for 10 min at 12,000 rpm to pellet the precipitated serum proteins. 150 μl of the clear supernatants were collected and peptides were finally analyzed by RPHPLC and LC-MS.
# The bioanalysis of the penetration and the conversion of the compound LV-104 has been achieved using the above described protocol on human cells (see part 2.2). The results are illustrated on FIG. 14.
# CHL-1 cells [6] = assay: MTT-based colorimetric cell viability assay; set-up: species or system human; details: 0.1 μM, 24 hours
# Excerpt: We next choose a widely used MTT-based colorimetric assay to assess the potential metabolic toxicity and cell viability alterations in the presence of LV-80. […]
# [7] = calculated in vitro IC50, read-out: IC50
# [8] = read-out: IC50 on cells, compounds added prior Taxol-treatment, FIG. 12
structure (smiles),measurement,setting,value
"O=C(O)CC(Cc1ccccc1)C(=O)O (stereo not drawn) [BzISA, benzylsuccinic acid, reference compound]",effect on CPA-dependent detyrosination,carboxypeptidase A (CPA),completely abolished
same,effect on VASH2-mediated detyrosination in vitro,VASH2,did not affect
same,effect on VASH1-mediated detyrosination in vitro,VASH1 [1],did not affect
"CCOC(=O)[C@H]1O[C@@H]1C(=O)N[C@@H](Cc1ccc(O)cc1)C(=O)O [Epo-Y, reference compound]",IC50,VASHs,~15 µM
same,IC50,"[2]; read-out: IC50 in cellulo, taxol-induced detyrosination assay, FIG. 4F",3000 nM
same,effect on tubulin acetylation,[2]; taxol treated CHL-1 cells,without affecting
same,inhibition of tubulin detyrosination in cellulo,[2]; taxol treated CHL-1 cells,dose-dependently inhibited; also recorded: reduced tubulin detyrosination in a dose-dependent manner
CCOC(=O)CCCCNC(=O)[C@H]1O[C@@H]1C(=O)N[C@@H](Cc1ccc(OCC)cc1)C(=O)OCC [IBMT23],in vitro VASH inhibition activity,VASH1 [3],inactive
same,in cellulo activity compared with reference compounds,[2]; taxol treated CHL-1 cells,more potent on cultured cells than LV80; also recorded: as potent in vivo as LV80
same,inhibition of tubulin detyrosination in cellulo,[2]; taxol treated CHL-1 cells,excellent
CCOc1ccc(C[C@H](NC(=O)[C@H]2O[C@@H]2C(=O)N[C@H](Cc2ccc(OCC)cc2)C(=O)O)C(=O)O)cc1 [IBMT-11],IC50,"VASH1 [3]; VASH1-mediated tubulin detyrosination, FIG. 13.A, read-out: in vitro IC50",600 nM
same,in vitro activity compared with reference compounds,VASH1 [3],more potently than Epo-Y
same,Fold change/ LV-80,VASH1 [3],2
same,inhibition of tubulin detyrosination in cellulo,[2]; taxol treated CHL-1 cells,weak inhibition activity
CCOc1ccc(C[C@H](NC(=O)[C@H]2O[C@@H]2C(=O)NCCCCC(=O)O)C(=O)O)cc1 [IBMT-26],IC50,VASH1 [3]; [7],3900 nM
same,Fold change/ LV-80,VASH1 [3],13
O=C(O)CCC[C@@H](NC(=O)[C@H]1O[C@@H]1C(=O)N[C@@H](Cc1ccc(OCc2ccccc2)cc1)C(=O)O)C(=O)NCCc1ccccc1 [IBMT-29 hydro],IC50,VASH1 [3]; [7],300 nM
same,Fold change/ LV-80,VASH1 [3],1
CCOC(=O)[C@H](Cc1ccc(OCc2ccccc2)cc1)NC(=O)[C@H]1O[C@@H]1C(=O)N[C@H](CCCC(=O)O)C(=O)NCCc1ccccc1 [IBMT-29],IC50,VASH1 [3]; [7],4200 nM
same,Fold change/ LV-80,VASH1 [3],14
CC(C)(C)ONC(=O)CCC[C@@H](NC(=O)[C@H]1O[C@@H]1C(=O)N[C@@H](Cc1ccc(OCc2ccccc2)cc1)C(=O)O)C(=O)NCCc1ccccc1 [IBMT-31 hydro],IC50,VASH1 [3]; [7],3900 nM
same,Fold change/ LV-80,VASH1 [3],13
O=C([O-])CCC[C@H](NC(=O)[C@H]1O[C@@H]1C(=O)N[C@@H](Cc1ccc(OCc2ccccc2)cc1)C(=O)[O-])C(=O)NCCc1ccccc1.[Na+].[Na+] [IBMT-34],IC50,VASH1 [3]; [7],300 nM
same,in vitro activity compared with reference compounds,VASH1 [3],same activity
same,Fold change/ LV-80,VASH1 [3],1
same,in cellulo activity compared with reference compounds,[2]; taxol treated CHL-1 cells,same activity
same,solubility in water or PBS solution,[4],dramatically increased
NC(=O)C(CCCC(=O)O)NC(=O)C1OC1C(=O)NC(Cc1ccc(O)cc1)C(=O)O (stereo not drawn) [LV-43],in cellulo activity compared with reference compounds,[2]; taxol treated CHL-1 cells,much less efficient than Epo-Y
O=C(O)[C@H](Cc1ccc(O)cc1)NC(=O)[C@H]1O[C@@H]1C(=O)N[C@@H](Cc1ccc(O)cc1)C(=O)O [LV-59],IC50,VASH1 [3]; [7],1200 nM
same,Fold change/ LV-80,VASH1 [3],4
CCOC(=O)[C@H](Cc1ccc(OCC)cc1)NC(=O)[C@H]1O[C@@H]1C(=O)N[C@@H](Cc1ccc(OCC)cc1)C(=O)OCC [LV-104],in vitro VASH inhibition activity,VASH1 [3],did not inhibit
same,IC50,[2]; [8],8 nM
same,inhibition of tubulin detyrosination in cellulo,[2]; taxol treated CHL-1 cells,very efficient inhibition
same,conversion of prodrug into IBMT11 inside human cells,CHL-1 cells [5],total conversion
same,detection of parent compound inside cells,CHL-1 cells [5],undetectable
same,effect on VASH2-mediated detyrosination in vitro,VASH2,did not have any effect
same,effect on VASH1-mediated detyrosination in vitro,VASH1 [1],did not have any effect
CCOC(=O)[C@H](Cc1ccc(OCC)cc1)NC(=O)[C@H]1O[C@@H]1C(=O)OCC [LV-111],IC50,[2]; [8],20 nM
same,effect on VASH2-mediated detyrosination in vitro,VASH2,did not have any effect
same,effect on VASH1-mediated detyrosination in vitro,VASH1 [1],did not have any effect
"CCOC(=O)C1OC1C(=O)NC(Cc1ccc(O)cc1)C(=O)OC(C)(C)C (stereo not drawn) [SD-139, reference compound]",in vitro activity compared with reference compounds,VASH1 [3],very less potent than LV-80
"O=C(O)C(Cc1ccc(O)cc1)NC(=O)C1OC1C(=O)O (stereo not drawn) [SD-139sapo, reference compound]",in vitro activity compared with reference compounds,VASH1 [3],very less potent than LV-80
O=C(O)[C@H](Cc1ccc(OCc2ccccc2)cc1)NC(=O)[C@H]1O[C@@H]1C(=O)N[C@@H](Cc1ccc(OCc2ccccc2)cc1)C(=O)O [Synthé Mix hydro],IC50,VASH1 [3]; [7],600 nM
same,Fold change/ LV-80,VASH1 [3],2
"CC(=O)O[C@H]1C(=O)[C@@]2(C)[C@H]([C@H](OC(=O)c3ccccc3)[C@]3(O)C[C@H](OC(=O)[C@H](O)[C@@H](NC(=O)c4ccccc4)c4ccccc4)C(C)=C1C3(C)C)[C@]1(OC(C)=O)CO[C@@H]1C[C@@H]2O [taxol, paclitaxel]",cell viability,CHL-1 cells [6],significant reduction
